Measured values reported in US20230203041A1, “ANTAGONISTS OF THE ADENOSINE A2A RECEPTOR” (AdoRx Therapeutics Limited, priority 2020, published 2023).

Legend:
[1] = molecular target: T1, human Adenosine A2a receptor (Homo sapiens, UniProt P29274); experiment: Adenosine receptor TR-FRET binding assay (CA200645 displacement), A2a; conditions: 100 nM CA200645, CHO cell membranes, 2 hours at room temperature
T1 construct: expressed in transfected cells; host or cells: CHO cell membranes

[2] = molecular target: T2, human Adenosine A3 receptor (Homo sapiens, UniProt P0DMS8); experiment: Adenosine receptor TR-FRET binding assay (CA200645 displacement), A3
T2 sequence (P0DMS8 1-318): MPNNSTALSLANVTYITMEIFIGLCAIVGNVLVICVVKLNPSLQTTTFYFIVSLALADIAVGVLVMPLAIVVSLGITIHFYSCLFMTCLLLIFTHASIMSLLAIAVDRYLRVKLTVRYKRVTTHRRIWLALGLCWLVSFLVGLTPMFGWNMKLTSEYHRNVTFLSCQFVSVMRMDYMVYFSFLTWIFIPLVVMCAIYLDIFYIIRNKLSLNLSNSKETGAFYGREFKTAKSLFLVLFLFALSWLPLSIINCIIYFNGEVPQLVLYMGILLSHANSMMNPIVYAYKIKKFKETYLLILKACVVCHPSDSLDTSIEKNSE

[3] = tested on: CD8+ T cells in human whole blood; experiment: Measurement of pCREB in CD8+ T cells in human whole blood; assay type: cell-based; conditions: T-cell, 1 h; heparinised human whole blood, rolipram, 3 μM NECA, 60 min, phospho-CREB in CD8+ T cells by FACS
Description: Heparinised human whole blood was pre-incubated at 37° C. with serial dilutions of A2a antagonists for 20 min. and the phosphodiesterase inhibitor rolipram to amplify the pCREB response. The adenosine receptor agonist NECA is then added at a final concentration of 3 μM and following a 60 min incubation the blood is fixed and red blood cells lysed. White blood cells are isolated, permeabilized and stained with directly conjugated fluorescent antibodies to phospho-CREB (Alexa Fluor 488) and CD8 (Alexa Fluor 647) and the level of phospho-CREB in CD8+ T cells is measured by FACS using a BD Accuri C6 Flow Cytometer.

human PBMCs = experiment: CD3/CD28 stimulated IL-2 release NECA reversal assay in human PBMCs; assay type: cell-based; conditions: PBMC, CD3/CD28 antibody stimulated, 1 uM NECA, 24 hours, IL-2 in culture supernatant;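 note: dose-response as % inhibition where 100% equals no-NECA control wells with CD3/CD28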
Description: Blood is drawn from healthy volunteers using sodium citrate as the anticoagulant (0.3% final concentration). After centrifugation of the blood over Histopaque-1077, PBMCs are collected from the Histopaque/plasma interface and washed twice in PBS (300 g for 10 mins at room temp). Cells are plated at 50,000 cells/well in 150 μl RPMI/10% FCS in 96-well cell culture plates that have been precoated with 1 ug/ml CD3 antibody. 50 μl diluted compound mix is added to the cells, to obtain final concentrations of 1 ug/ml CD28 antibody, 1 uM NECA and 0.003-10 μM adenosine receptor antagonist. Assay plates are incubated for 24 hours at 37° C. in a humidified incubator. Culture supernatant is tested for IL-2 levels using the human IL-2 Tissue Culture Kit (Meso Scale Discovery).

[4] = molecular target: T3, human Adenosine A2b receptor (Homo sapiens, UniProt P29275); experiment: Adenosine receptor TR-FRET binding assay (CA200645 displacement), A2b; conditions: 30 nM CA200645, CHO cell membranes, 2 hours at room temperature
T3 construct: expressed in transfected cells; host or cells: CHO cell membranes
T3 sequence (P29275 1-332): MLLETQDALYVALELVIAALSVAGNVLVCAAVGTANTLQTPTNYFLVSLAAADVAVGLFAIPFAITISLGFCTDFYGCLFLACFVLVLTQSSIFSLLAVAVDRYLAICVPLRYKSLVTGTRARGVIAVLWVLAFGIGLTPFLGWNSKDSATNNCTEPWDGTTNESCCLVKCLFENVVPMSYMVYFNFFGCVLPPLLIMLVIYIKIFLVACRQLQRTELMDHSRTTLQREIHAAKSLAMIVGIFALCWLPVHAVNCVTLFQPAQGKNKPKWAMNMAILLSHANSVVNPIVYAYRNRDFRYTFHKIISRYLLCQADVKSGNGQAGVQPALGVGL

[5] = molecular target: T4, human Adenosine A1 receptor (Homo sapiens, UniProt P30542); experiment: Adenosine receptor TR-FRET binding assay (CA200645 displacement), A1
T4 sequence (P30542 1-326): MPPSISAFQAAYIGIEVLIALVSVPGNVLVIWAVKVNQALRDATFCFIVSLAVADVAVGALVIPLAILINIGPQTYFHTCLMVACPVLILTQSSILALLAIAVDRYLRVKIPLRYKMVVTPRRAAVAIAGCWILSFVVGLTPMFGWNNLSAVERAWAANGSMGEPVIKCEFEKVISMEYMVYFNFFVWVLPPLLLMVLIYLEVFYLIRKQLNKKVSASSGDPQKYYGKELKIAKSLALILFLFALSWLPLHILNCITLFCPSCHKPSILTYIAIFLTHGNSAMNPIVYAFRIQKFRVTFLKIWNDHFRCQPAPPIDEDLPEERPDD

T1 sequence (P29274 whole entry): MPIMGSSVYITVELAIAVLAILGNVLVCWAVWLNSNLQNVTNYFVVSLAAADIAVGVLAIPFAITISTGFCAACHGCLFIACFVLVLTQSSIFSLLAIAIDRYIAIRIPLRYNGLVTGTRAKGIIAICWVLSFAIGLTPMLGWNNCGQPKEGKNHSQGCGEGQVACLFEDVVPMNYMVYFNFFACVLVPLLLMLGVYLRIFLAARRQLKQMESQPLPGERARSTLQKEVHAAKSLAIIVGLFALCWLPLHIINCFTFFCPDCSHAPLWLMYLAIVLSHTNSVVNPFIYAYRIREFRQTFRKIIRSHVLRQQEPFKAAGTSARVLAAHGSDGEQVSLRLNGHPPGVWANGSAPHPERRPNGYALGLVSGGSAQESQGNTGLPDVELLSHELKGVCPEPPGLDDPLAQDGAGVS

Structure (SMILES): Cc1cc(-c2c(-c3cccc(C#N)c3)nn3ccc(C(=O)NCC(C)(C)O)nc23)cc(C#N)n1 [Example 12.8, 3-(2-Cyano-6-methyl-4-pyridyl)-2-(3-cyanophenyl)-N-(2-hydroxy-2-methyl-propyl)pyrazolo[1,5-a]pyrimidine-5-carboxamide]
- Ki [1]: 3.4 nM
- Ki [2]: > 1000 nM
- IC50 [3]: 350 nM
- IC50 (human PBMCs): 35 nM
- Ki [4]: 177 nM
- Ki [5]: 575 nM

Structure (SMILES): Cc1cc(-c2c(-c3cccc(C#N)c3)nn3ccc(NC4CCN(S(C)(=O)=O)CC4)nc23)cc(Cl)n1 [Example 2.11]
- Ki [1]: 1.5 nM
- Ki [2]: > 1000 nM
- IC50 [3]: 1330 nM
- IC50 (human PBMCs): 5 nM
- Ki [4]: 34 nM
- Ki [5]: 176 nM

Structure (SMILES): Cc1cc(-c2c(-c3cccc(C#N)c3)nn3ccc(C(N)=O)nc23)cc(Cl)n1 [Example 5.6]
- Ki [1]: 4.6 nM
- Ki [2]: > 1000 nM
- IC50 [3]: 8540 nM
- IC50 (human PBMCs): 16 nM
- Ki [4]: 16 nM
- Ki [5]: 303 nM

Structure (SMILES): Cc1cc(-c2c(-c3cccc(C#N)c3)nn3ccc(NC(N)=O)nc23)cc(Cl)n1 [Example 30, [3-(2-Chloro-6-methyl-4-pyridyl)-2-(3-cyanophenyl)pyrazolo[1,5-a]pyrimidin-5-yl]urea]
- Ki [1]: 0.8 nM
- Ki [2]: > 1000 nM
- IC50 [3]: 640 nM
- IC50 (human PBMCs): 21 nM
- Ki [4]: 5 nM
- Ki [5]: 57 nM

Structure (SMILES): Cc1cc(-c2c(-c3cccc(C#N)c3)nn3ccc(N)nc23)cc(Cl)n1 [Example 1.4, 3-[5-Amino-3-(2-chloro-6-methyl-4-pyridyl)pyrazolo[1,5-a]pyrimidin-2-yl]benzonitrile]
- Ki [1]: 2.6 nM
- Ki [2]: > 1000 nM
- IC50 [3]: 590 nM
- IC50 (human PBMCs): 37 nM
- Ki [4]: 4 nM
- Ki [5]: 66 nM

Structure (SMILES): CC(=O)N1CCC(Nc2ccn3nc(-c4cccc(C#N)c4)c(-c4cc(C)nc(C)c4)c3n2)CC1 [Example 105.1, 3-[5-[(1-Acetyl-4-piperidyl)amino]-3-(2,6-dimethyl-4-pyridyl)pyrazolo[1,5-a]pyrimidin-2-yl]benzonitrile]
- Ki [1]: 8 nM
- Ki [2]: > 1000 nM
- IC50 [3]: 890 nM
- IC50 (human PBMCs): 33 nM
- Ki [4]: 50 nM
- Ki [5]: 692 nM

Structure (SMILES): Cc1cc(-c2c(-c3cccc(C#N)c3)nn3ccc(NCC(C)(C)O)nc23)cc(C(F)F)n1 [Example 23, 3-[3-[2-(Difluoromethyl)-6-methyl-4-pyridyl]-5-[(2-hydroxy-2-methyl-propyl)amino]pyrazolo[1,5-a]pyrimidin-2-yl]benzonitrile]
- Ki [1]: 0.6 nM
- Ki [2]: > 1000 nM
- IC50 [3]: 390 nM
- IC50 (human PBMCs): 20 nM
- Ki [4]: 53 nM
- Ki [5]: 42 nM

Structure (SMILES): Cc1cc(-c2c(-c3cccc(C#N)c3)nn3ccc(C(=O)NCC(C)(C)O)nc23)ccn1 [Example 12.2, 2-(3-Cyanophenyl)-N-(2-hydroxy-2-methyl-propyl)-3-(2-methyl-4-pyridyl)pyrazolo[1,5-a]pyrimidine-5-carboxamide]
- Ki [1]: 2.9 nM
- Ki [2]: 56 nM
- IC50 [3]: 520 nM
- IC50 (human PBMCs): 22 nM
- Ki [4]: 21 nM
- Ki [5]: 5 nM

Structure (SMILES): Cc1cc(-c2c(-c3cccc(C#N)c3)nn3ccc(NCC(C)(C)O)nc23)cc(C)n1 [Example 23.2]
- Ki [1]: 1.9 nM
- Ki [2]: > 1000 nM
- IC50 [3]: 260 nM
- IC50 (human PBMCs): 25 nM
- Ki [4]: 168 nM
- Ki [5]: 280 nM

Structure (SMILES): Cc1cccnc1CNc1ccn2nc(-c3ccco3)c(C#N)c2n1 [Example 37, 2-(2-Furyl)-5-[(3-methyl-2-pyridyl)methylamino]pyrazolo[1,5-a]pyrimidine-3-carbonitrile]
- Ki [1]: 0.3 nM
- Ki [2]: 186 nM
- IC50 [3]: 1460 nM
- IC50 (human PBMCs): 13 nM
- Ki [4]: 22 nM
- Ki [5]: 5 nM

Structure (SMILES): Cc1cc(-c2c(-c3cccc(C#N)c3)nn3ccc(C(=N)N)nc23)cc(C)n1 [Example 97, 2-(3-Cyanophenyl)-3-(2,6-dimethyl-4-pyridyl)pyrazolo[1,5-a]pyrimidine-5-carboxamidine]
- Ki [1]: 1.5 nM
- Ki [2]: > 1000 nM
- IC50 [3]: 580 nM
- IC50 (human PBMCs): 38 nM
- Ki [4]: 21 nM
- Ki [5]: 260 nM

Structure (SMILES): Cc1cc(-c2c(-c3cccc(C#N)c3)nn3ccc(C(=O)NCC(C)(C)O)nc23)cc(C(F)F)n1 [Example 12.4, 2-(3-Cyanophenyl)-3-[2-(difluoromethyl)-6-methyl-4-pyridyl]-N-(2-hydroxy-2-methyl-propyl)pyrazolo[1,5-a]pyrimidine-5-carboxamide]
- Ki [1]: 0.1 nM
- Ki [2]: 1550 nM
- IC50 [3]: 150 nM
- IC50 (human PBMCs): 4 nM
- Ki [4]: 12 nM
- Ki [5]: 148 nM

Structure (SMILES): Cc1cc(-c2c(-c3cccc(C#N)c3)nn3ccc(C(=O)N[C@H]4CNC[C@H]4O)nc23)cc(Cl)n1 [Example 7.2, 3-(2-Chloro-6-methyl-4-pyridyl)-2-(3-cyanophenyl)-N-[cis-(3S,4R)-4-hydroxypyrrolidin-3-yl]pyrazolo[1,5-a]pyrimidine-5-carboxamide]
- Ki [1]: 2.6 nM
- Ki [2]: > 1000 nM
- IC50 [3]: 1070 nM
- IC50 (human PBMCs): 70 nM
- Ki [4]: 3 nM
- Ki [5]: 458 nM

Structure (SMILES): Cc1cc(-c2c(-c3cccc(C#N)c3)nn3ccc(C(=O)NCCC(C)(C)N)nc23)cc(Cl)n1 [Example 7, N-(3-Amino-3-methyl-butyl)-3-(2-chloro-6-methyl-4-pyridyl)-2-(3-cyanophenyl)pyrazolo[1,5-a]pyrimidine-5-carboxamide]
- Ki [1]: 0.4 nM
- Ki [2]: > 1000 nM
- IC50 [3]: 280 nM
- IC50 (human PBMCs): 34 nM
- Ki [4]: 5 nM
- Ki [5]: 143 nM

Structure (SMILES): Cc1cc(-c2c(-c3cccc(C#N)c3)nn3ccc(N)nc23)cc(N)n1 [Example 27.1, 3-[5-Amino-3-(2-amino-6-methyl-4-pyridyl)pyrazolo[1,5-a]pyrimidin-2-yl]benzonitrile]
- Ki [1]: 9.2 nM
- Ki [2]: > 1000 nM
- IC50 [3]: 740 nM
- IC50 (human PBMCs): 36 nM
- Ki [4]: 43 nM
- Ki [5]: 62 nM

Structure (SMILES): Cc1cc(-c2c(-c3cccc(C#N)c3C)nn3ccc(C(=O)NCC(C)(C)O)nc23)cc(Cl)n1 [Example 102, 3-(2-Chloro-6-methyl-4-pyridyl)-2-(3-cyano-2-methyl-phenyl)-N-(2-hydroxy-2-methyl-propyl)pyrazolo[1,5-a]pyrimidine-5-carboxamide]
- Ki [1]: 0.5 nM
- Ki [2]: > 1000 nM
- IC50 [3]: 140 nM
- IC50 (human PBMCs): 16 nM
- Ki [4]: 32 nM
- Ki [5]: 233 nM

Structure (SMILES): Cc1cc(-c2c(-c3cccc(C#N)c3)nn3ccc(N4CCOC[C@H]4C(=O)O)nc23)cc(Cl)n1 [Example 2.3]
- Ki [1]: 0.6 nM
- Ki [2]: 1280 nM
- IC50 [3]: 1250 nM
- IC50 (human PBMCs): 12 nM
- Ki [4]: 4 nM
- Ki [5]: 21 nM

Structure (SMILES): Cc1cc(-c2c(-c3cccc(C#N)c3)nn3ccc(C(=O)NCC4(O)CC4)nc23)cc(Cl)n1 [Example 6.2, 3-(2-Chloro-6-methyl-4-pyridyl)-2-(3-cyanophenyl)-N-[(1-hydroxycyclopropyl)methyl]pyrazolo[1,5-a]pyrimidine-5-carboxamide]
- Ki [1]: 0.3 nM
- Ki [2]: 2310 nM
- IC50 [3]: 830 nM
- IC50 (human PBMCs): 8 nM
- Ki [4]: 10 nM
- Ki [5]: 122 nM
